Columns and labels:
Test in all cases: Histone peptide microarray
Assay type in all cases: binding, human
[1] = test system: TRIM66 (PB); settings: TRIM66 (PB), GST-tagged; arrays performed twice, n of 4
Text: (§1) To more comprehensively define the histone interactions of the 31 PHD readers identified from the domain microarray analyses, we probed each on an alternate microarray platform containing a library of 293 synthetic histone peptides with single or combinatorial PTMs (Additional file 2: Figure S4 and Additional file 3: Table S2).
(§2) The 31 GST-tagged PHD readers identified in the PHD finger domain array were expressed and purified as previously. Histone peptide arrays and peptide pulldown assays were conducted as recently described (specifically, the optimized protocol from Petell et al. for the former).
(§3) Supplementary file 13072_2020_328_MOESM3_ESM.xlsx: Additional file 3: Table S2. […] Excel Tab Peptide List is a compiled list of the entire 293 histone peptide library with amino acid sequence ranges. […] Each number corresponds to the peptide number designated in Peptide List. Excel Tab Average Signals is a compiled set of binding data: chromatin reader at 0.5 μM vs. entire 293 peptide library. Data is presented as the average and standard deviation of 4 replicates. The average signals are colored to indicate signal intensity with green being strong and white being weak/low. […] Key: red= stronger relative binding; blue = weaker relative binding. Excel Tab Array info summary is a table summarizing the domains, sequence coverage, array signal range, and noise for each of the GST-tagged readers assayed on the peptide microarrays.

[2] = test system: RAG2; settings: RAG2, GST-tagged; arrays performed twice, n of 4
Text: as §1, §2, §3

[3] = test system: CHD4 (PPCC); settings: CHD4 (PPCC), GST-tagged; arrays performed twice, n of 4
Text: as §1, §2, §3

[4] = test system: CHD5 (PCC); settings: CHD5 (PCC), GST-tagged; arrays performed twice, n of 4
Text: as §1, §2, §3

[5] = test system: DPF2 (PPC2W2); settings: DPF2 (PPC2W2), GST-tagged; arrays performed twice, n of 4
Text: as §1, §2, §3

[6] = test system: BPTF (PB); settings: BPTF (PB), GST-tagged; arrays performed twice, n of 4
Text: as §1, §2, §3

[7] = test system: KDM4C (TTP); settings: KDM4C (TTP), GST-tagged; arrays performed twice, n of 4
Text: as §1, §2, §3

[8] = test system: TAF3; settings: TAF3, GST-tagged; arrays performed twice, n of 4
Text: as §1, §2, §3

[9] = test system: BAZ2B; settings: BAZ2B, GST-tagged; arrays performed twice, n of 4
Text: as §1, §2, §3

[10] = test system: AIRE (PP); settings: AIRE (PP), GST-tagged; arrays performed twice, n of 4
Text: as §1, §2, §3

[11] = test system: PHF21A; settings: PHF21A, GST-tagged; arrays performed twice, n of 4
Text: as §1, §2, §3

[12] = test system: MLL5; settings: MLL5, GST-tagged; arrays performed twice, n of 4
Text: as §1, §2, §3

[13] = test system: PHF23; settings: PHF23, GST-tagged; arrays performed twice, n of 4
Text: as §1, §2, §3

[14] = test system: KDM5A (3); settings: KDM5A (3), GST-tagged; arrays performed twice, n of 4
Text: as §1, §2, §3

[15] = test system: PHF8; settings: PHF8, GST-tagged; arrays performed twice, n of 4
Text: as §1, §2, §3

[16] = test system: ING1; settings: ING1, GST-tagged; arrays performed twice, n of 4
Text: as §1, §2, §3

[17] = test system: DIDO1; settings: DIDO1, GST-tagged; arrays performed twice, n of 4
Text: as §1, §2, §3

[18] = test system: KDM5A (1); settings: KDM5A (1), GST-tagged; arrays performed twice, n of 4
Text: as §1, §2, §3

[19] = test system: SP140L; settings: SP140L, GST-tagged; arrays performed twice, n of 4
Text: as §1, §2, §3

[20] = test system: KDM7A; settings: KDM7A, GST-tagged; arrays performed twice, n of 4
Text: as §1, §2, §3

[21] = test system: PHF13; settings: PHF13, GST-tagged; arrays performed twice, n of 4
Text: as §1, §2, §3

[22] = test system: ING2; settings: ING2, GST-tagged; arrays performed twice, n of 4
Text: as §1, §2, §3

[23] = test system: PHF2; settings: PHF2, GST-tagged; arrays performed twice, n of 4
Text: as §1, §2, §3

[24] = test system: ING3; settings: ING3, GST-tagged; arrays performed twice, n of 4
Text: as §1, §2, §3

[25] = test system: KDM5B (3); settings: KDM5B (3), GST-tagged; arrays performed twice, n of 4
Text: as §1, §2, §3

[26] = test system: CHD5 (PPCC); settings: CHD5 (PPCC), GST-tagged; arrays performed twice, n of 4
Text: as §1, §2, §3

[27] = test system: ING5; settings: ING5, GST-tagged; arrays performed twice, n of 4
Text: as §1, §2, §3

[28] = test system: MORC3 (CW); settings: MORC3 (CW), GST-tagged; arrays performed twice, n of 4
Text: as §1, §2, §3

[29] = test system: PHRF1 (RP); settings: PHRF1 (RP), GST-tagged; arrays performed twice, n of 4
Text: as §1, §2, §3

[30] = test system: ING4; settings: ING4, GST-tagged; arrays performed twice, n of 4
Text: as §1, §2, §3

| Array Heatmap value (peptide array binding signal) [1] | Array Heatmap value (peptide array binding signal) [2] | Array Heatmap value (peptide array binding signal) [3] | Array Heatmap value (peptide array binding signal) [4] | Array Heatmap value (peptide array binding signal) [5] | Array Heatmap value (peptide array binding signal) [6] | Array Heatmap value (peptide array binding signal) [7] | Array Heatmap value (peptide array binding signal) [8] | Array Heatmap value (peptide array binding signal) [9] | Array Heatmap value (peptide array binding signal) [10] | Array Heatmap value (peptide array binding signal) [11] | Array Heatmap value (peptide array binding signal) [12] | Array Heatmap value (peptide array binding signal) [13] | Array Heatmap value (peptide array binding signal) [14] | Array Heatmap value (peptide array binding signal) [15] | Array Heatmap value (peptide array binding signal) [16] | Array Heatmap value (peptide array binding signal) [17] | Array Heatmap value (peptide array binding signal) [18] | Array Heatmap value (peptide array binding signal) [19] | Array Heatmap value (peptide array binding signal) [20] | Substance | further results |
| --- | --- | --- | --- | --- | --- | --- | --- | --- | --- | --- | --- | --- | --- | --- | --- | --- | --- | --- | --- | --- | --- |
| 0.6387 | 0.2728 | 0.6142 | 0.7798 | 0.687 | 0.368 | 0.4942 | 0.2843 | 0.4974 | 0.4591 | 0.4816 | 0.5981 | 0.5681 | 0.4387 | 0.3528 | 0.5678 | 0.8611 | 0.4746 | 0.3553 | 0.3765 | H4K5me1 + K8ac + K12me1: H4 1-23 | Array Heatmap value (peptide array binding signal) [21]: 0.6435; Array Heatmap value (peptide array binding signal) [22]: 0.626; Array Heatmap value (peptide array binding signal) [23]: 0.5535; Array Heatmap value (peptide array binding signal) [24]: 0.4924; Array Heatmap value (peptide array binding signal) [25]: 0.5017; Array Heatmap value (peptide array binding signal) [26]: 0.5643; Array Heatmap value (peptide array binding signal) [27]: 0.3748; Array Heatmap value (peptide array binding signal) [28]: 0.3838; Array Heatmap value (peptide array binding signal) [29]: 0.4574; Array Heatmap value (peptide array binding signal) [30]: 0.4694 |
| 0.5664 | 0.2452 | 0.5794 | 0.8384 | 0.6725 | 0.3587 | 0.5368 | 0.2852 | 0.4848 | 0.5419 | 0.4807 | 0.5364 | 0.5223 | 0.4422 | 0.3864 | 0.5081 | 0.6199 | 0.512 | 0.3646 | 0.4148 | H4K8ac + K20ac: H4 1-23 | Array Heatmap value (peptide array binding signal) [21]: 0.5975; Array Heatmap value (peptide array binding signal) [22]: 0.5825; Array Heatmap value (peptide array binding signal) [23]: 0.4411; Array Heatmap value (peptide array binding signal) [24]: 0.4639; Array Heatmap value (peptide array binding signal) [25]: 0.4924; Array Heatmap value (peptide array binding signal) [26]: 0.5684; Array Heatmap value (peptide array binding signal) [27]: 0.3709; Array Heatmap value (peptide array binding signal) [28]: 0.3621; Array Heatmap value (peptide array binding signal) [29]: 0.4283; Array Heatmap value (peptide array binding signal) [30]: 0.4785 |

From paper PMC6979384, “Characterization of the plant homeodomain (PHD) reader family for their histone tail interactions” (Epigenetics & Chromatin, 2020)
